# From PMC11585924, “Direct measurements of neurosteroid binding to specific sites on GABAA receptors” (British journal of pharmacology, 2024)
# “Also recorded” adds a separate entry of the source.
# How the values were obtained:
# [1] = target: α1β3 GABAA receptors; parameters: method as in Tateiwa et al., 2023; details: ref Tateiwa et al., 2023; read-out: apparent Kd; cited from earlier work
# [2] = target: T1, ELIC-α1^W246LGABAAR (Homo sapiens, UniProt P14867, W273L); experiment: Inhibition of MQ290 FRET by NS in W246L receptors; format: binding; details: 30 μM NS; MQ290 1 μM
# T1 sequence (P14867 other isoform, or with tags, fused parts or gaps W273L): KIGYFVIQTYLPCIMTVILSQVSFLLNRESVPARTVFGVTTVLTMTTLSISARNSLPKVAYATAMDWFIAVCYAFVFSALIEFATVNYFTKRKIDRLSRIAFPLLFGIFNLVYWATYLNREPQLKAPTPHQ
# T1 sequence (P0C7B7 1-198, further chain): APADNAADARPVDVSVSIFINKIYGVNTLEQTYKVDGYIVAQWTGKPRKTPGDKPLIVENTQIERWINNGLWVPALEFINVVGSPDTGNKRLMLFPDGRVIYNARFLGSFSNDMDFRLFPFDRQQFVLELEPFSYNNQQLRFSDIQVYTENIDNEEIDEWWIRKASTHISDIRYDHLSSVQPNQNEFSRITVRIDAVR
# Method: (§1) One hundred microlitres of ELIC-α1GABAAR (0.3 μM) was transferred into a 50-μl window quartz cuvette maintained at 4°C, and NaI was added to the protein sample to a final concentration of 100 mM and incubated for 10 min. MQ290 was then added at a concentration of 3 μM for 3α-OH NS inhibition curves or 1 μM for 3β-OH NS inhibition curves and incubated for 30 min. One-microlitre aliquots of 3α-OH and 3β-OH NS from their corresponding stock solutions (prepared in Buffer A + 0.015% DDM) were added to achieve concentrations between 0.01 and 30 μM. The background emission spectra of ligands alone were obtained for each ligand concentration in the absence of protein and were subtracted from the protein-ligand emission spectra to yield background subtracted data. The MQ290 FRET spectra for different ligand concentrations were estimated using the method described above. The 370-nm intensities of the FRET spectra were plotted against ligand concentration and fitted to a four-parameter logistic curve to obtain IC50 data (GraphPad Software version 9.4.0, San Diego, CA). Ki values were calculated using the relationship: Ki=IC50/1+LT/Kd
# [3] = target: T1, ELIC-α1^W246LGABAAR; experiment: biochemical; format: binding
# Method: ELIC-α1GABAAR was expressed and purified according to a previously published protocol ([Q. Chen et al., 2018]). The purified protein was aliquoted and stored at −80°C. Mutagenesis was performed as described in previous reports ([Kinde et al., 2016]) by oligonucleotide-directed mutagenesis using Phu polymerase (Thermo Fisher Scientific, Waltham, MA, USA) verified by sequencing. ELIC-α1GABAAR was expressed in OverExpress™ C43(D3) E. coli, derived from Rosetta™(DE3) cells under double selection with kanamycin and chloramphenicol for ELIC-α1GABAAR.
# One hundred microlitres of purified ELIC-α1GABAAR (0.3 μM in Buffer A + 0.015% DDM) was transferred into a 50-μl window quartz cuvette (Starna Cells, Atascadero, CA, USA), which was placed in a cuvette holder maintained at 4°C. […] Two microlitres of NaI (AK Scientific, Union City, CA, USA; 5-M stock prepared in 0.1-Mm sodium hydrosulfite [Sigma-Aldrich, St. Louis, MO, USA]) was added to the protein (final concentration = 100 mM) and incubated for 10 min to reduce the fluorescence emission from hydrophilic tryptophans. To measure the concentration–dependent effects of NS on tryptophan fluorescence, 1 μl of NS from each 100× stock solution was sequentially added to the NaI-equilibrated protein and thoroughly mixed to achieve concentrations from 0.01 to 50 μM. […]
# [4] = target: T2, ELIC-α1GABAAR (Homo sapiens, UniProt P14867); experiment: KK200 photolabelling competition, middle-down MS; format: binding; details: 3 μM KK200, 30 μM competitor
# T2 sequence (P14867 other isoform, or with tags, fused parts or gaps): as the sequence (P14867 other isoform, or with tags, fused parts or gaps W273L) above, with L25W counted along it
# T2 sequence (P0C7B7 1-198, further chain): as the sequence (P0C7B7 1-198, further chain) above
# Method: The synthesis of the NS photolabelling reagent KK200 is detailed in previous reports ([W. W. L. Cheng et al., 2018]; [Jiang et al., 2016]). […] The samples were then irradiated in a quartz cuvette for 5 min, using a photoreactor emitting light at >320 nm ([Germann et al., 2021]). Sample preparation for tryptic digestion and analysis by LC–MS was performed as previously described ([Sugasawa et al., 2019]). Peptides were separated on a home-packed PLRP-S (Agilent, Santa Clara, CA, USA) column (10 cm × 75 μm, 300 Å) using a 135-min gradient from 10% to 90% acetonitrile and introduced to an Orbitrap-Elite mass spectrometer (Thermo Fisher Scientific, Waltham, MA, USA; RRID:SCR_020548) at 800 nl·min^−1 with a nanospray source. MS acquisition was set as an MS1 Orbitrap scan (resolution of 60,000) followed by top 20 MS2 Orbitrap scans (resolution of 15,000) using data-dependent acquisition and exclusion of singly charged precursors. Fragmentation was performed using high-energy dissociation with normalized energy of 35%. Analysis of data sets was performed using Xcalibur (Thermo Fisher Scientific, Waltham, MA, USA; RRID: SCR_014593) to manually search for TM1, TM2, TM3 or TM4 tryptic peptides with or without NS photolabelling modifications. Photolabelling efficiency was estimated by generating extracted chromatograms of unlabelled and labelled peptides, determining the area under the curve, and calculating the (area of labelled peptide/(area of unlabelled + area of labelled peptide). MS2 spectra of photolabelled TMD peptides were analysed by manual assignment of fragment ions with and without photolabelling modification.
# [5] = target: T2, ELIC-α1GABAAR; format: binding
# Method: as §1
# where LT is the concentration of MQ290 and Kd was determined from the MQ290 binding curve.
smiles,measurement,setting,value
"CC(=O)[C@H]1CC[C@H]2[C@@H]3CC[C@H]4C[C@H](O)CC[C@]4(C)[C@H]3CC[C@]12C [AlloP, allopregnanolone]",Kd,[1],0.1 ± 0.05 µM
same,inhibition of remaining MQ290 FRET signal in W246L,[2],reduced by neither
same,IC50,[3],0.5 ± 0.21 µM
same,prevention of KK200 photolabelling of TM3 (Y309),[4],significantly different than control; also recorded: prevented
same,Hill slope,"[5]; 3α-OH NS, MQ290 3 μM",−1.89 ± 0.26
same,mechanism of inhibition of MQ290 binding,[5]; MQ290 binding curves with 3×Kd and 30 μM NS,competitive interaction
